For data set [1], the system named is EWS-FLI1. As to the kind of experiment: Biotinylated isoxazole-mediated precipitation. The class given is biochemical. As for the experimental part: (§1) These assays were performed as previously described (Kato et al., 2012) with slight modifications. Biotinylated isoxazole (b-isox, Sigma-Aldrich) was reconstituted in DMSO. Briefly, 5-10 million cells were resuspended in 1 mL lysis buffer (20 mM Tris-HCl pH 7.4, 150 mM NaCl, 5 mM MgCl2, 0.5% NP-40 and 10% glycerol supplemented with 1× Protease/Phosphatase inhibitors (Pierce), 0.1 mM PMSF and 20 mM betamercaptoethanol) and incubated for 30 minutes with rotation at +4° C. Protein supernatant was then collected after centrifugation for 15 min at 14000 rpm+4° C. A 5% whole cell extract (WCE) control was collected and the remaining proteins were divided into four aliquots before addition of biotinylated isoxazole at 0, 10, 30 100 uM final concentrations. 100 μg/mL RNase A (Life Technologies) was used for RNase treatment experiments. The Reaction solutions were incubated at +4° C. for 1 h with rotation and centrifuged for 15 min at 14000 rpm+4° C. Supernatant was saved for further analysis and pellets were washed twice in supplemented Lysis buffer before resuspension in Laemmli buffer. WCE, pellets and supernatants were analyzed by 4%-12% Tris-Glycine gradient gels (Life Technologies) and Western blotting was performed using standard protocols.

The target in another data set is T1, wild-type FLI1 (Homo sapiens, UniProt Q01543).
T1 construct: expressed in transfected cells; host or cells: U2OS osteosarcoma cells, lentiviral expression
T1 sequence (Q01543 1-452): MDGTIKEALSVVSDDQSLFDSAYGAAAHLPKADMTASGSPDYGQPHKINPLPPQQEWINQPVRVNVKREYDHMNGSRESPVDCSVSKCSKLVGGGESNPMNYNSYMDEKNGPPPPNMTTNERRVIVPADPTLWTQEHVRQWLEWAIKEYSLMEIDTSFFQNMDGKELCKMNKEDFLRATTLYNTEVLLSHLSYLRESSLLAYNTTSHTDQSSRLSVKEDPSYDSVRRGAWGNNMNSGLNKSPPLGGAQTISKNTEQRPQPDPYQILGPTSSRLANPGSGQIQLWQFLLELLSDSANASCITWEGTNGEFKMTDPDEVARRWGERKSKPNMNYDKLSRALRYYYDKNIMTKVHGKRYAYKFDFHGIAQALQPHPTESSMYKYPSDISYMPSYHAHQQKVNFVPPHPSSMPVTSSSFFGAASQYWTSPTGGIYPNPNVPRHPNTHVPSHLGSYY
Nature of the data set: Biotinylated isoxazole-mediated precipitation. The format is biochemical. The following applies: U2OS osteosarcoma cell lysates. On the procedure: as §1

The target in data set [2] is mSWI/SNF (BAF) complexes (human). As to the kind of experiment: cell-based or functional assay.
Data set [3] has as its system EWS-FLI1. As to the kind of experiment: BAF155 ChIP-seq after shRNA knockdown of EWS-FLI1. The class given is cell-based. To be noted: SK-N-MC cells, versus shGFP.
Target sequence in this assay (as listed by the source): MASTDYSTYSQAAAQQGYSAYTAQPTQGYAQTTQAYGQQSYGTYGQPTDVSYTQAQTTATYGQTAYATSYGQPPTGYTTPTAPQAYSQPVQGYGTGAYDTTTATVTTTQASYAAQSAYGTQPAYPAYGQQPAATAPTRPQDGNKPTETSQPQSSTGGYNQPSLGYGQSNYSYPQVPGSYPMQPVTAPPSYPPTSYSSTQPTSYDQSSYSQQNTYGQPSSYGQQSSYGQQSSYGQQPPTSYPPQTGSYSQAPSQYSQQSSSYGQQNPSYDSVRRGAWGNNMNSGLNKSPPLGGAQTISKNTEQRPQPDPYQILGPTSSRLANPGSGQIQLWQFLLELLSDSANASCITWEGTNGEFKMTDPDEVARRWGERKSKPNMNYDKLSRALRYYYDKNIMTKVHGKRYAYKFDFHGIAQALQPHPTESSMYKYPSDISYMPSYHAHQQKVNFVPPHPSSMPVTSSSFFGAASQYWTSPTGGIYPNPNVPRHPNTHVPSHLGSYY
The target in data set [4] is mSWI/SNF (BAF) complexes (human). As to the kind of experiment: partial urea denaturation of nuclear extracts before anti-EWSR1 immunoprecipitation, immunoblot.
Another data set deals with T2, EWS(YS37)-FLI1 (human).
T2 construct: EWS-FLI1 with all 37 tyrosines of the prion-like domain changed to serine; also called EWS(Y37)-FLI1; EWS(YS37)-FLI1 mutant protein
T2 chain: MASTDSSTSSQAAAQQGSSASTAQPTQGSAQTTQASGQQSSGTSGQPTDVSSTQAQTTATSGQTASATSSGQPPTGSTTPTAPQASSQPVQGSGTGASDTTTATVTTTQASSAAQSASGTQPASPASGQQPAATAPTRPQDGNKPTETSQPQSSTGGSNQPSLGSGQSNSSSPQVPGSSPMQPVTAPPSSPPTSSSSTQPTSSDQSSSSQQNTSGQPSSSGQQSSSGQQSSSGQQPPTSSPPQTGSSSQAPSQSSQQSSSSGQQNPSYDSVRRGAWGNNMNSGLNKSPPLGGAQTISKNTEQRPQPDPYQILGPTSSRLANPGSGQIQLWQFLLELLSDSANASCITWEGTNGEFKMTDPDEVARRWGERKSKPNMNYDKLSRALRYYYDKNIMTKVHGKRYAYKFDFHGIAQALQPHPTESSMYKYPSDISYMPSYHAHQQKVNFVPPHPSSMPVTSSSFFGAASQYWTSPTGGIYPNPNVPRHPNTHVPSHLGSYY
As to the kind of experiment: co-immunoprecipitation with anti-V5 antibodies, HEK-293-T cells co-expressing HA- and V5-tagged proteins.

In the case of `O=C1N[C@H]2[C@H](CS[C@H]2CCCCC(=O)OCCCCCCNC(=O)c2cc(-c3cccs3)on2)N1` [b-isox, biotinylated isoxazole], the “precipitation of EWS-FLI1” value in the data set on EWS-FLI1 [1] (100 uM b-isox, Ewing sarcoma cell lysates) is listed as “precipitates”. For the same molecule, in the data set with EWS-FLI1 [1] (Ewing sarcoma cell lysates, b-isox 0, 10, 30, 100 uM), the “precipitation of EWS-FLI1, dose dependence” value is recorded as “dose-dependent”. Moreover, the “precipitation of lentivirally expressed EWS-FLI1” value with EWS-FLI1 [1] (U2OS osteosarcoma cell lysates) is given as “precipitates”. Further, on wild-type FLI1, the “precipitation of lentivirally expressed wild-type FLI1” value was “but not wild-type FLI1”. In the case of EWS-FLI1 fusion protein, in data set [2], the BAF155 ChIP-seq peak occupancy at EWS-FLI1-bound GGAA repeats, SK-N-MC cells turned out to be 2 fold. On to “shEWS-FLI1: shRNA, target FLI1, position 1917, sequence CGTCATGTTCTGGTTTGAGAT”, for which the “BAF155 occupancy at EWS-FLI1 bound GGAA repeats” value in the data set with EWS-FLI1 [3] is on record as “decreased specifically at GGAA repeat regions”. In turn, “wild-type EWSR1 (from UniProt Q01844 1-656)” came in with a urea concentration at which the interactions were decreased in data set [4] of 0.5 M.

B1: HA-tagged EWS(YS37)-FLI1 (other, not shown: small tags and cut ends)
chain: MASTDSSTSSQAAAQQGSSASTAQPTQGSAQTTQASGQQSSGTSGQPTDVSSTQAQTTATSGQTASATSSGQPPTGSTTPTAPQASSQPVQGSGTGASDTTTATVTTTQASSAAQSASGTQPASPASGQQPAATAPTRPQDGNKPTETSQPQSSTGGSNQPSLGSGQSNSSSPQVPGSSPMQPVTAPPSSPPTSSSSTQPTSSDQSSSSQQNTSGQPSSSGQQSSSGQQSSSGQQPPTSSPPQTGSSSQAPSQSSQQSSSSGQQNPSYDSVRRGAWGNNMNSGLNKSPPLGGAQTISKNTEQRPQPDPYQILGPTSSRLANPGSGQIQLWQFLLELLSDSANASCITWEGTNGEFKMTDPDEVARRWGERKSKPNMNYDKLSRALRYYYDKNIMTKVHGKRYAYKFDFHGIAQALQPHPTESSMYKYPSDISYMPSYHAHQQKVNFVPPHPSSMPVTSSSFFGAASQYWTSPTGGIYPNPNVPRHPNTHVPSHLGSYY
notes: also called HA-tagged mutant EWS-FLI1
On to B1, for which, in the data set with EWS(YS37)-FLI1, the binding result is “binds”.

(Values after patent publication US20200206344A1, “METHODS FOR MODULATING THE INTERACTION BETWEEN EWS-FLI1 AND BAF COMPLEXES” (Dana-Farber Cancer Institute, Inc., priority 2017, published 2020).)
